Values after ≈ are worked out from the molar mass of the structure shown. Like-named read-outs stand apart in the source and are kept apart here.
Key:
HIV-1 IIIB = assay: Anti-HIV-1 activity: protection of MT-4 cells from virus-induced cytopathogenicity (MTT); format: cell-based, Human Immunodeficiency Virus type-1; conditions: Human immunodeficiency virus 1, IIIB, MT4, 96 h, read-out: HIV-1IIIB EC50
From the text: (§1) Cell line supporting the multiplication of Human Immunodeficiency Virus type-1 (HIV-1) was the CD4+ human T-cells, derived from human hematological tumors, containing an integrated HTLV-1 genome (MT-4). Cells were purchased from American Type Culture Collection (ATCC). Human Immunodeficiency Virus type-1 (HIV-1) IIIB laboratory strain was obtained from the supernatant of the persistently infected H9/IIIB cells (NIH 1983).
The activity of compounds against HIV-1 was based on inhibition of virus-induced cytopathogenicity in MT-4 cell acutely infected with a multiplicity of infection (m.o.i.) of 0.01. Briefly, 50 μL of RPMI containing 1 × 10^4 MT-4 cells were added to each well of flat-bottom microtiter trays, containing 50 μL of RPMI without or with serial dilutions of test compounds. Then, 20 μL of a HIV-1 suspension containing 100 CCID50 were added. After a 4-day incubation at 37 °C, cell viability was determined by the MTT method.

S. aureus ATCC 29213 = assay: MIC, twofold serial microdilution; format: cell-based; conditions: Staphylococcus aureus, ATCC29213; standard strain, 18 h, 35 °C
Method: (§2) The antimicrobial activity of the compounds was tested on Gram-positive bacteria (Staphylococcus aureus NCTC 4163, Staphylococcus aureus ATCC 25923, Staphylococcus aureus ATCC 6538, Staphylococcus aureus ATCC 29213, Staphylococcus epidermidis ATCC 12228, Staphylococcus epidermidis ATCC 35984, Enterococcus faecalis ATCC 29212, Bacillus subtilis ATCC 6633, Bacillus cereus ATCC 11778, Micrococcus luteus ATCC 9341, Micrococcus luteus ATCC 10240); Gram-negative rods (Escherichia coli ATCC 10538, Escherichia coli ATCC 25922, Escherichia coli NCTC 8196, Proteus vulgaris NCTC 4635, Pseudomonas aeruginosa ATCC 15442, Pseudomonas aeruginosa NCTC 6749, Pseudomonas aeruginosa ATCC 27863, Bordetella bronchiseptica ATCC 4617) and yeasts (Candida albicans ATCC 10231, Candida albicans ATCC 90028, Candida parapsilosis ATCC 22019). Other microorganisms used were obtained from the collection of the Department of Pharmaceutical Microbiology, Medical University of Warsaw, Poland.
(§3) Antibacterial activity was examined by the disc-diffusion method under standard conditions using Mueller-Hinton II agar medium (Becton Dickinson) according to CLSI (previously NCCLS) guidelines. Antifungal activities were assessed using Mueller-Hinton agar + 2% glucose and 0.5 µg/mL Methylene Blue Dye Medium. Sterile filter paper discs (9 mm diameter, Whatman No 3 chromatography paper) were dripped with tested compound solutions (in DMSO) to load 400 μg of a given compound per disc. Dry discs were placed on the surface of appropriate agar medium. The results (diameter of the growth inhibition zone) were read after 18 h of incubation at 35 °C. Minimal Inhibitory Concentration (MIC) was tested by the twofold serial microdilution method (in 96-well microtiter plates) using Mueller-Hinton Broth medium (Beckton Dickinson) for bacteria or RPMI-1640 medium for Candida species according to CLSI guidelines. The stock solution of tested agent was prepared in DMSO and diluted in sterile water. Concentrations of tested agents ranged from 0.125 to 512 µg/mL. The final inoculum of all studied microorganisms was 10^5 CFU/ mL^−1 (colony forming units per mL). Minimal inhibitory concentrations (the lowest concentration of a tested agent that prevents visible growth of a microorganism) were read after 18 h (bacteria) or 24 h (yeasts) of incubation at 35 °C.

B. cereus ATCC 11778 = assay: MIC, twofold serial microdilution; format: cell-based; conditions: Bacillus cereus, ATCC11778; standard strain, 18 h, 35 °C
Method: as §2, §3

S. aureus ATCC 25923 = assay: MIC, twofold serial microdilution; format: cell-based; conditions: Staphylococcus aureus, ATCC25923; standard strain, 18 h, 35 °C
Method: as §2, §3

M. luteus ATCC 10240 = assay: MIC, twofold serial microdilution; format: cell-based; conditions: Micrococcus luteus, ATCC10240; standard strain, 18 h, 35 °C
Method: as §2, §3

[1] = tested on: S. epidermidis ATCC 35984; assay: MIC, twofold serial microdilution; format: cell-based; conditions: Staphylococcus epidermidis, ATCC35984; standard strain, 18 h, 35 °C
Method: as §2, §3

S. aureus NCTC 4163 = assay: MIC, twofold serial microdilution; format: cell-based; conditions: Staphylococcus aureus, NCTC4163; standard strain, 18 h, 35 °C
Method: as §2, §3

S. aureus ATCC 6538 = assay: MIC, twofold serial microdilution; format: cell-based; conditions: Staphylococcus aureus, ATCC6538; standard strain, 18 h, 35 °C
Method: as §2, §3

B. subtilis ATCC 6633 = assay: MIC, twofold serial microdilution; format: cell-based; conditions: Bacillus subtilis, ATCC6633; standard strain, 18 h, 35 °C
Method: as §2, §3

M. luteus ATCC 9341 = assay: MIC, twofold serial microdilution; format: cell-based; conditions: Micrococcus luteus, ATCC9341; standard strain, 18 h, 35 °C
Method: as §2, §3

[2] = tested on: S. epidermidis ATCC 12228; assay: MIC, twofold serial microdilution; format: cell-based; conditions: Staphylococcus epidermidis, ATCC12228; standard strain, 18 h, 35 °C
Method: as §2, §3

[3] = tested on: S. epidermidis MRSE 409/11; assay: MIC, hospital methicillin-resistant strain; format: cell-based; conditions: Staphylococcus epidermidis
Method: as §2, §3

[4] = tested on: S. epidermidis MRSE 405/11; assay: MIC, hospital methicillin-resistant strain; format: cell-based; conditions: Staphylococcus epidermidis
Method: as §2, §3

[5] = tested on: S. epidermidis MRSE 407/11; assay: MIC, hospital methicillin-resistant strain; format: cell-based; conditions: Staphylococcus epidermidis
Method: as §2, §3

[6] = tested on: S. epidermidis MRSE 411/11; assay: MIC, hospital methicillin-resistant strain; format: cell-based; conditions: Staphylococcus epidermidis
Method: as §2, §3

[7] = tested on: S. epidermidis MRSE 413/11; assay: MIC, hospital methicillin-resistant strain; format: cell-based; conditions: Staphylococcus epidermidis
Method: as §2, §3

[8] = tested on: S. epidermidis MRSE 422/11; assay: MIC, hospital methicillin-resistant strain; format: cell-based; conditions: Staphylococcus epidermidis
Method: as §2, §3

[9] = tested on: S. epidermidis MRSE 406/11; assay: MIC, hospital methicillin-resistant strain; format: cell-based; conditions: Staphylococcus epidermidis
Method: as §2, §3

[10] = tested on: S. epidermidis MRSE 412/11; assay: MIC, hospital methicillin-resistant strain; format: cell-based; conditions: Staphylococcus epidermidis
Method: as §2, §3

[11] = tested on: S. epidermidis MRSE 403/11; assay: MIC, hospital methicillin-resistant strain; format: cell-based; conditions: Staphylococcus epidermidis
Method: as §2, §3

[12] = tested on: S. epidermidis MRSE 404/11; assay: MIC, hospital methicillin-resistant strain; format: cell-based; conditions: Staphylococcus epidermidis
Method: as §2, §3

[13] = Cytotoxicity against mock-infected MT-4 cells (MTT); format: cell-based, human; conditions: human, concentration reducing viability of mock-infected MT-4 cells by 50%
Method: as §1
Exponentially growing MT-4 cells were seeded at an initial density of 1 × 10^5 cells/mL in 96-well plates in RPMI-1640 medium, supplemented with 10% fetal bovine serum (FBS), 100 units/mL penicillin G and 100 μg/mL streptomycin. Cell cultures were then incubated at 37 °C in a humidified, 5% CO2 atmosphere, in the absence or presence of serial dilutions of tested compounds. Cell viability was determined after 96 h at 37 °C by the 3-(4,5-dimethylthiazol-2-yl)-2,5-diphenyl-tetrazolium bromide (MTT) method.

staphylococci = assay: MIC against staphylococci; format: cell-based; conditions: moderate activity
Method: as §2, §3

E. faecalis ATCC 29212 = assay: MIC, twofold serial microdilution; format: cell-based; conditions: Enterococcus faecalis, ATCC29212; standard strain, 18 h, 35 °C
Method: as §2, §3

SMILES	MIC (S. aureus ATCC 29213) [µg/mL]	MIC (B. cereus ATCC 11778) [µg/mL]	MIC (S. aureus ATCC 25923) [µg/mL]	MIC (M. luteus ATCC 10240) [µg/mL]	MIC [1] [µg/mL]	MIC (S. aureus NCTC 4163) [µg/mL]	MIC (S. aureus ATCC 6538) [µg/mL]	MIC (B. subtilis ATCC 6633) [µg/mL]	MIC (M. luteus ATCC 9341) [µg/mL]	MIC [2] [µg/mL]	MIC [3] [µg/mL]	MIC [4] [µg/mL]	MIC [5] [µg/mL]	MIC [6] [µg/mL]	MIC [7] [µg/mL]	MIC [8] [µg/mL]	MIC [9] [µg/mL]	MIC [10] [µg/mL]	MIC [11] [µg/mL]	MIC [12] [µg/mL]	also measured
O=[N+]([O-])c1cc(NC(=S)NC2CC3CCC2C3)ccc1Cl (stereo not drawn) [Compound 24, 1-bicyclo[2.2.1]hept-2-yl-3-(4-chloro-3-nitrophenyl)thiourea]	8 (≈ 24.6 µM)	8 (≈ 24.6 µM)	8 (≈ 24.6 µM)	16 (≈ 49.1 µM)	16 (≈ 49.1 µM)	8 (≈ 24.6 µM)	8 (≈ 24.6 µM)	8 (≈ 24.6 µM)	32 (≈ 98.2 µM)	16 (≈ 49.1 µM)	4 (≈ 12.3 µM)	4 (≈ 12.3 µM)	4 (≈ 12.3 µM)	4 (≈ 12.3 µM)	4 (≈ 12.3 µM)	4 (≈ 12.3 µM)	8 (≈ 24.6 µM)	4 (≈ 12.3 µM)	4 (≈ 12.3 µM)	4 (≈ 12.3 µM)	EC50 (HIV-1 IIIB): > 16 µM; CC50 at 96 h [13]: 16 µM; melting point: 94 to 96 °C; MIC range towards staphylococci (staphylococci): 8 to 16 µg/mL
C=CCNC(=S)Nc1ccc(Cl)c([N+](=O)[O-])c1 [Compound 28, 1-(4-chloro-3-nitrophenyl)-3-prop-2-en-1-ylthiourea]	64 (≈ 236 µM)	32 (≈ 118 µM)	32 (≈ 118 µM)	32 (≈ 118 µM)	32 (≈ 118 µM)	64 (≈ 236 µM)	32 (≈ 118 µM)	32 (≈ 118 µM)	32 (≈ 118 µM)	32 (≈ 118 µM)	64 (≈ 236 µM)	64 (≈ 236 µM)	64 (≈ 236 µM)	64 (≈ 236 µM)	64 (≈ 236 µM)	128 (≈ 471 µM)	64 (≈ 236 µM)	128 (≈ 471 µM)	64 (≈ 236 µM)	64 (≈ 236 µM)	EC50 (HIV-1 IIIB; 50% protection of MT-4 cells from HIV-1 induced cytopathogenicity, MTT, 4-day incubation): ≥ 43 µM; MIC (E. faecalis ATCC 29212): 64 µg/mL (≈ 236 µM); CC50 at 96 h [13]: 43 µM; melting point: 112 to 114 °C
